{"source": "patent US10857230B2", "about": "“Co-therapy comprising a small molecule CSF-1R inhibitor and an agonistic antibody that specifically binds CD40 for the treatment of cancer” (Janssen Biotech, Inc., priority 2017, dated 2020)", "tested_on": "CT26 murine colon carcinoma cells", "test": "Mean Tumor Volume Assay, CT26 (Example 3)", "assay_type": "in vivo, BALB/c mice", "details": "anti-mCD40 5 mpk, anti-CSF1R 10 mpk i.p. Days 1, 5, 9, 13", "protocol": "The assay was run using female BALB/c mice (BALB/c AnNcr1, Charles River).\nCT26 murine colon carcinoma cells were grown in RPMI-1640 medium containing 10% fetal bovine serum, 2 mM glutamine, 100 units/mL penicillin G sodium, 100 μg/mL streptomycin sulfate, and 25 μg/mL gentamicin. The cells were cultured in tissue culture flasks in a humidified incubator at 37° C., in an atmosphere of 5% CO2 and 95% air.\nThe CT26 colon cells used for implantation were harvested during log phase growth and re-suspended in cold phosphate buffered saline (PBS).\nEach mouse was injected subcutaneously in the right flank with 1×10^6 tumor cells (0.1 mL cell suspension) and tumors were monitored as their volumes approached the target range of 75 to 125 mm^3. Day 1 of the study, animals with individual tumor volumes ranging from 75 to 125 mm^3 were randomized into six different groups (n=12).\nThe compound of formula of formula (I), rat IgG2a (Clone 2A3) (5.55 mg/mL), anti-CSF1R (purchased from BioXCell anti-mouse CSF1R (CD115), Clone: AFS98, SKU: BE0213, Lot No. 5248/0814) and anti-mCD40 (purchased from BioXCell, anti-mouse CD40, Clone: FGK45, SKU: 13E0016-2-) were used as test compounds, alone or in combination. The compound of formula (I) was stored at room temperature and antibody stock solutions were stored at 4° C. upon receipt. The compound of formula (I) was dissolved in 0.5% HPMC to yield a 1.0 mg/mL dosing solution. The dosing solution was stored at 4° C., protected from light. The rat IgG2a isotype, anti-CD40 and anti-CSF1R dosing solutions were prepared once at the beginning of study by diluting aliquots of the stock solutions with PBS. The dosing solution was stored at 4° C., protected from light.\nOn Day 1 of the study, groups of BALB/c mice (n=12/group) began dosing according to the following protocol\nThe vehicle (0.5% HPMC) and compound of formula (I) were administered orally (p.o.). The rat IgG2a isotype control, anti-mCD40 and anti-CSF1R were administered intraperitoneally (i.p.). Rat IgG2a(2A3), the anti-CSF1R and compound of formula (I) were administered at 10 mg/kg. The anti-mCD40 was administered at 5 mg/kg. The dosing volume for all animals was 10 mL/kg (0.2 mL per 20-g mouse) and was adjusted for body weight.", "data": [{"smiles": "CC1(C)CC=C(c2nc(C3CC(C)(C)OC(C)(C)C3)ccc2NC(=O)c2nc(C#N)c[nH]2)CC1", "note": "[compound of formula (I), 4-cyano-N-(2-(4,4-dimethylcyclohex-1-en-1-yl)-6-(2,2,6,6-tetramethyltetrahydro-2H-pyran-4-yl)pyridin-3-yl)-1H-imidazole-2-carboxamide]", "values": [{"measurement": "Group Mean Tumor Volume, Day 6", "setting": "Day 6, formula (I) 10 mpk b.i.d. × 14 days p.o.", "value": 107.69, "unit": "mm^3"}, {"measurement": "% Tumor Growth Inhibition, Day 6", "setting": "Day 6, relative to Group 1 control, formula (I) 10 mpk b.i.d. × 14 days p.o.", "value": "−0.86", "unit": "%"}, {"measurement": "Group Mean Tumor Volume, Day 8", "setting": "Day 8, formula (I) 10 mpk b.i.d. × 14 days p.o.", "value": 130.14, "unit": "mm^3"}, {"measurement": "% Tumor Growth Inhibition, Day 8", "setting": "Day 8, relative to Group 1 control, formula (I) 10 mpk b.i.d. × 14 days p.o.", "value": "−6.79", "unit": "%"}, {"measurement": "Group Mean Tumor Volume, Day 10", "setting": "Day 10, formula (I) 10 mpk b.i.d. × 14 days p.o.", "value": 196.09, "unit": "mm^3"}, {"measurement": "% Tumor Growth Inhibition, Day 10", "setting": "Day 10, relative to Group 1 control, formula (I) 10 mpk b.i.d. × 14 days p.o.", "value": "−24.44", "unit": "%"}, {"measurement": "Group Mean Tumor Volume, Day 13", "setting": "Day 13, formula (I) 10 mpk b.i.d. × 14 days p.o.", "value": 268.17, "unit": "mm^3"}, {"measurement": "% Tumor Growth Inhibition, Day 13", "setting": "Day 13, relative to Group 1 control, formula (I) 10 mpk b.i.d. × 14 days p.o.", "value": "−1.27", "unit": "%"}, {"measurement": "Group Mean Tumor Volume, Day 15", "setting": "Day 15, formula (I) 10 mpk b.i.d. × 14 days p.o.", "value": 392.41, "unit": "mm^3"}, {"measurement": "% Tumor Growth Inhibition, Day 15", "setting": "Day 15, relative to Group 1 control, formula (I) 10 mpk b.i.d. × 14 days p.o.", "value": 5.39, "unit": "%"}, {"measurement": "Group Mean Tumor Volume, Day 16", "setting": "Day 16, formula (I) 10 mpk b.i.d. × 14 days p.o.", "value": 412.91, "unit": "mm^3"}, {"measurement": "% Tumor Growth Inhibition, Day 16", "setting": "Day 16, relative to Group 1 control, formula (I) 10 mpk b.i.d. × 14 days p.o.", "value": "−2.37", "unit": "%"}, {"measurement": "Group Mean Tumor Volume, Day 20", "setting": "Day 20, formula (I) 10 mpk b.i.d. × 14 days p.o.", "value": 739.49, "unit": "mm^3"}, {"measurement": "% Tumor Growth Inhibition, Day 20", "setting": "Day 20, relative to Group 1 control, formula (I) 10 mpk b.i.d. × 14 days p.o.", "value": 16.42, "unit": "%"}]}]}
